From paper PMC4160570, “Effects of proarrhythmic drugs on relaxation time and beating pattern in rat engineered heart tissue” (Basic Research in Cardiology, 2014)
Read-outs that look alike come from different tables or passages of the source.

Experiments:
[1] = test system: rat engineered heart tissue (EHT); test: Video-optical analysis of contractile parameters of spontaneously beating rat EHTs (50 nM epinephrine); conditions: for significant T2 prolongation (p<0.05 and at least 15 % vs baseline): 1-, 10-, 100-fold FTPC, 50 nM epinephrine, n = 4–8; for irregular beating as the primary effect: sinusoidal fluctuation of twitch amplitudes, time dependent; for ability to mimic the effect of JTV519 on 4AP-induced changes: flecainide 0.5 µM; for effect on 4AP-induced beating irregularity and aftercontractions / T2 values: 4AP 10 mM; for effect on 4AP-induced beating irregularity and aftercontractions: SEA0400 2 µM or JTV519 2 µM; for relaxation remaining prolonged with 4AP in presence of inhibitor: high concentration of 4AP plus SEA0400 or JTV519
mouse = conditions: in vivo; cited from earlier work
rat = conditions: cited from earlier work
[2] = 4AP 10 mM in absence and presence of the blocker, SEA0400 2 µM, JTV519 2 µM

## CC(C)NCC(O)c1ccc(NS(C)(=O)=O)cc1 (racemic) [D,L-sotalol]
[1]
  T2-effective concentrations: 100 fold FTPC
  published IKs IC50 relative to threshold for group 1 or 2 effects: at or below the threshold for group 1 or 2 effects
  significant T2 prolongation (p<0.05 and at least 15 % vs baseline): Significant T2 prolongations
mouse
  LD50: 790 mg∙kg^-1 (mouse, i. p.)

## CCN(CC)CCCN(c1ccccc1)C1Cc2ccccc2C1 [Aprindine]
[1]
  significant T2 prolongation (p<0.05 and at least 15 % vs baseline): Significant T2 prolongations

## COc1ccc(CCN2CCC(Nc3nc4ccccc4n3Cc3ccc(F)cc3)CC2)cc1 [Astemizole]
[1]; 1–100× FTPC
  effect on force (group 3): decrease in force
mouse
  LD50: 35 mg∙kg^-1 (mouse, i. v.)

## CC(C)COCC(CN(Cc1ccccc1)c1ccccc1)N1CCCC1 (stereo not drawn) [Bepridil]
[1]
  published IKs IC50 relative to threshold for group 1 or 2 effects: at or below the threshold for group 1 or 2 effects
  significant T2 prolongation (p<0.05 and at least 15 % vs baseline): Significant T2 prolongations
  irregular beating as the primary effect: induced irregular beating

## COc1cc(N)c(Cl)cc1C(=O)NC1CCN(CCCOc2ccc(F)cc2)CC1OC (stereo not drawn) [Cisapride]
rat; in vivo
  LD50: 4.166 mg∙kg^-1 (rat, p. o.)
[1]
  significant T2 prolongation (p<0.05 and at least 15 % vs baseline): Significant T2 prolongations

## CC[C@H]1OC(=O)[C@H](C)[C@@H](O[C@H]2C[C@@](C)(OC)[C@@H](O)[C@H](C)O2)[C@H](C)[C@@H](O[C@@H]2O[C@H](C)C[C@H](N(C)C)[C@H]2O)[C@](C)(OC)C[C@@H](C)C(=O)[C@H](C)[C@@H](O)[C@]1(C)O [Clarithromycin]
rat; in vivo
  LD50: 1.270 mg∙kg^-1 (rat, p. o.) 850 mg∙kg^-1 (mouse, i. p.)
[1]
  published IC50 values for hERG and Ito relative to threshold for T2 prolongation or irregularity: at or below the threshold for T2 prolongation or irregularity
  significant T2 prolongation (p<0.05 and at least 15 % vs baseline): Significant T2 prolongations
mouse
  LD50: 1.270 mg∙kg^-1 (rat, p. o.) 850 mg∙kg^-1 (mouse, i. p.)

## CNCCCN1c2ccccc2CCc2ccccc21 [Desipramine]
[1]
  significant T2 prolongation (p<0.05 and at least 15 % vs baseline): Significant T2 prolongations
  irregular beating as the primary effect: induced irregular beating
mouse
  LD50: 740 mg∙kg^-1 (mouse, p. o.)

## CN(C)CCOC(c1ccccc1)c1ccccc1 [Diphenhydramine]
[1]; 1–100× FTPC
  effect on contraction time T1 (group 3): prolongation of contraction time T1

## CC(C)N(CCC(C(N)=O)(c1ccccc1)c1ccccn1)C(C)C (stereo not drawn) [Disopyramide]
rat; in vivo
  LD50: 333 mg∙kg^-1 (rat, p. o.)
[1]
  T2-effective concentrations: 5 fold FTPC
  significant T2 prolongation (p<0.05 and at least 15 % vs baseline): Significant T2 prolongations

## CN(CCOc1ccc(NS(C)(=O)=O)cc1)CCc1ccc(NS(C)(=O)=O)cc1 [Dofetilide]
[1]
  effect on T2 at 100-fold IC50 concentrations: lack of effect
[1]; 1–100× FTPC
  effect on the parameters studied (group 4): without any effect on the parameters studied

## O=c1[nH]c2ccccc2n1CCCN1CCC(n2c(=O)[nH]c3cc(Cl)ccc32)CC1 [Domperidone]
[1]
  significant T2 prolongation (p<0.05 and at least 15 % vs baseline): Significant T2 prolongations

## CC(C)(C)c1ccc(C(=O)CCCN2CCC(OC(c3ccccc3)c3ccccc3)CC2)cc1 [Ebastine]
[1]
  significant T2 prolongation (p<0.05 and at least 15 % vs baseline): Significant T2 prolongations

## CC(C)(C(=O)O)c1ccc(C(O)CCCN2CCC(C(O)(c3ccccc3)c3ccccc3)CC2)cc1 (stereo not drawn) [Fexofenadine]
[1]
  significant T2 prolongation (p<0.05 and at least 15 % vs baseline): Significant T2 prolongations

## O=C(NCC1CCCCN1)c1cc(OCC(F)(F)F)ccc1OCC(F)(F)F (stereo not drawn) [Flecainide]
rat; in vivo
  LD50: 1.346 mg∙kg^-1 (rat, p. o.)
[1]
  significant T2 prolongation (p<0.05 and at least 15 % vs baseline): Significant T2 prolongations
[1]; data not shown
  ability to mimic the effect of JTV519 on 4AP-induced changes: did not mimic the effect of JTV519

## CC[C@H](CO)Nc1nc(NCc2ccccc2)n2ncc(C(C)C)c2n1 [GP 0210]
[1]; NCEs tested at 0.1, 1, 10 µM
  Effect on EHT contractility: -

## O=C(CCCN1CCC(O)(c2ccc(Cl)cc2)CC1)c1ccc(F)cc1 [Haloperidol]
rat; in vivo
  LD50: 128 mg∙kg^-1 (rat, p. o.) 30 mg∙kg^-1 (mouse, i. p.)
[1]; 1–100× FTPC
  effect on contraction time T1 (group 3): prolongation of contraction time T1
mouse
  LD50: 128 mg∙kg^-1 (rat, p. o.) 30 mg∙kg^-1 (mouse, i. p.)

## CCCCCCCN(CC)CCCC(O)c1ccc(NS(C)(=O)=O)cc1 (stereo not drawn) [Ibutilide]
[1]
  effect on T2 at 100-fold IC50 concentrations: lack of effect
[1]; 1–100× FTPC
  effect on the parameters studied (group 4): without any effect on the parameters studied

## CN(C)CCCN1c2ccccc2CCc2ccccc21 [Imipramine]
[1]
  irregular beating as the primary effect: induced irregular beating

## COc1ccc2c(c1)CN(C(=O)CCN1CCC(Cc3ccccc3)CC1)CCS2 [JTV519]
[1]; [2]
  effect on the T2-prolonging effect of 4AP: reduced the effect of 4AP
[1]
  effect on 4AP-induced beating irregularity and aftercontractions: completely abolished beating irregularity and aftercontractions
  relaxation remaining prolonged with 4AP in presence of inhibitor: ~ 200%
[1]; SEA0400 2 µM, JTV519 2 µM
  T2 values: 80 ms

## OC(c1cc(C(F)(F)F)nc2c(C(F)(F)F)cccc12)C1CCCCN1 (stereo not drawn) [Mefloquine]
rat; in vivo
  LD50: 880 mg∙kg^-1 (rat, p. o.)
[1]; 1–100× FTPC
  effect on contraction time T1 (group 3): prolongation of contraction time T1

## COc1c(N2C[C@@H]3CCCN[C@@H]3C2)c(F)cc2c(=O)c(C(=O)O)cn(C3CC3)c12 [Moxifloxacin]
[1]
  T2-effective concentrations: 100 fold FTPC
  significant T2 prolongation (p<0.05 and at least 15 % vs baseline): Significant T2 prolongations

## O=C1NC(=O)C(c2ccccc2)(c2ccccc2)N1 [Phenytoin]
rat; in vivo
  LD50: 1.635 mg∙kg^-1 (rat, p. o.) 100 mg∙kg^-1 (mouse, i. p.)
[1]
  EHT-effective concentrations relative to hERG IC50: relaxation slowing occurred at concentrations below hERG IC50
  concentration at which T2 is prolonged: 1 × FTPC
  significant T2 prolongation (p<0.05 and at least 15 % vs baseline): Significant T2 prolongations
mouse
  LD50: 1.635 mg∙kg^-1 (rat, p. o.) 100 mg∙kg^-1 (mouse, i. p.)

## O=c1[nH]c2ccccc2n1C1CCN(CCCC(c2ccc(F)cc2)c2ccc(F)cc2)CC1 [Pimozide]
mouse
  LD50: 288 mg∙kg^-1 (mouse, p. o.)

## CCN(CC)CCNC(=O)c1ccc(N)cc1 [Procainamide]
[1]
  significant T2 prolongation (p<0.05 and at least 15 % vs baseline): Significant T2 prolongations

## Cc1nc2n(c(=O)c1CCN1CCC(c3noc4cc(F)ccc34)CC1)CCCC2 [Risperidone]
rat; in vivo
  LD50: 56,6 mg∙kg^-1 (rat, p. o.)

## CCOc1ccc(Oc2ccc(OCc3cc(F)ccc3F)cc2)c(N)c1 [SEA0400]
[1]; [2]
  effect on the T2-prolonging effect of 4AP: reduced the effect of 4AP
[1]
  effect on 4AP-induced beating irregularity and aftercontractions: completely abolished beating irregularity and aftercontractions
  relaxation remaining prolonged with 4AP in presence of inhibitor: ~ 200%
[1]; SEA0400 2 µM, JTV519 2 µM
  T2 values: 78 ms

## O=C1NCCN1CCN1CCC(c2cn(-c3ccc(F)cc3)c3ccc(Cl)cc23)CC1 [Sertindole]
[1]; 1–100× FTPC
  effect on contraction time T1 (group 3): prolongation of contraction time T1
mouse
  LD50: 420 mg∙kg^-1 (mouse, i. p.)

## C[C@@H]1CN(c2c(F)c(N)c3c(=O)c(C(=O)O)cn(C4CC4)c3c2F)C[C@H](C)N1 [Sparfloxacin]
[1]
  significant T2 prolongation (p<0.05 and at least 15 % vs baseline): Significant T2 prolongations
[1]; original recording, Supplemental Fig. 4
  changes associated with T2 prolongation: marked reduction of beating rate and an increase in twitch force

## CC/C(=C(\c1ccccc1)c1ccc(OCCN(C)C)cc1)c1ccccc1 [Tamoxifen]
rat; p. o.
  LD50: 4.100 mg∙kg^-1 (rat, p. o.)

## CC(C)(C)c1ccc(C(O)CCCN2CCC(C(O)(c3ccccc3)c3ccccc3)CC2)cc1 (stereo not drawn) [Terfenadine]
[1]; 1–100× FTPC
  effect on T2 (group 3): shortening of T2

## CCCCNc1ccc(C(=O)OCCN(C)C)cc1 [Tetracaine]
[1]; [2]
  effect on the T2-prolonging effect of 4AP: increased the T2-prolonging effect of 4AP
[1]; data not shown
  ability to mimic the effect of JTV519 on 4AP-induced changes: did not mimic the effect of JTV519

## NC1=N[C@H](O)[C@H]2[C@H]3O[C@]4(O)O[C@@H]([C@@H](O)[C@@]2(N1)[C@@H]4O)[C@]3(O)CO [Tetrodotoxin]
[1]
  effect of pure INa blockers on T1: did not prolong T1
  effect on the T2-prolonging effect of 4AP: increased the T2-prolonging effect of 4AP

## C/C=C(/C)C(=O)O[C@H]1C(C)=C2[C@H]([C@@H]1OC(=O)CCCCCCC)[C@@](C)(OC(C)=O)C[C@H](OC(=O)CCC)[C@@]1(O)[C@H]2OC(=O)[C@@]1(C)O [Thapsigargin]
[1]; 3–30 nM
  effect on time of relaxation, alone: did not affect time of relaxation as such
[1]; [2]
  effect on the T2-prolonging effect of 4AP: increased the T2-prolonging effect of 4AP

## CSc1ccc2c(c1)N(CCC1CCCCN1C)c1ccccc1S2 (stereo not drawn) [Thioridazine]
[1]
  irregular beating as the primary effect: induced irregular beating

## Cn1c(=O)c2c(ncn2C)n(C)c1=O [caffeine]
[1]; high concentration of caffeine (5 mM)
  effect on beating rate and twitch: reduced beating rate and induced a large and wide twitch

## C[N+](C)(C)CCOC(N)=O [carbachol]
[1]; carbachol 1 µM added to epinephrine 50 nM
  effect on frequency of beating in the burst: reversed epinephrine effect and induced partial stop
[1]; carbachol 1 µM plus epinephrine
  EHTs that stopped spontaneous beating: 3/7

## CCN(CC)CC(=O)Nc1c(C)cccc1C [lidocaine]
[1]; data not shown
  effect of pure INa blockers on T1: did not prolong T1
